# Test system: NCI-H1876 complex spheroid growth, % test/control
# Assay: Anticancer human tumor NCI-H1876 cell line growth inhibition [Asc];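 note: compound exposure lasted 7 days starting three days after seeding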;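 for viability, T/C: 100% = DMSO vehicle control wells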
# Details: for IC50: curve of first compound; for viability, T/C: stronger effect = lower value
# In short: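 Complex spheroids combining tumor cells with HUVEC endothelial cells and human MSCs, at 37 degrees C, 5% CO2; agents tested alone or combined, half-log dilutions from at or near clinical Cmax, or 10 microM if Cmax unknown.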
# [1] = second compound 0.00316 µM, first compound 0.00316 µM
# [2] = second compound 0.00316 µM, first compound 0.01 µM
# [3] = second compound 0.00316 µM, first compound 0.0316 µM
# [4] = second compound 0.00316 µM, first compound 0.1 µM
# [5] = second compound 0.00316 µM, first compound 0.316 µM
# [6] = second compound 0.00316 µM, first compound 1 µM
# [7] = second compound 0.01 µM, first compound 0.00316 µM
# [8] = second compound 0.01 µM, first compound 0.01 µM
# [9] = second compound 0.01 µM, first compound 0.0316 µM
# [10] = second compound 0.01 µM, first compound 0.1 µM
# [11] = second compound 0.01 µM, first compound 0.316 µM
# [12] = second compound 0.01 µM, first compound 1 µM
# [13] = second compound 0.0316 µM, first compound 0.00316 µM
# [14] = second compound 0.0316 µM, first compound 0.01 µM
# [15] = second compound 0.0316 µM, first compound 0.0316 µM
# [16] = second compound 0.0316 µM, first compound 0.1 µM
# [17] = second compound 0.0316 µM, first compound 0.316 µM
# [18] = second compound 0.0316 µM, first compound 1 µM
# [19] = second compound 0.1 µM, first compound 0.00316 µM
# [20] = second compound 0.1 µM, first compound 0.01 µM
# [21] = second compound 0.1 µM, first compound 0.0316 µM
# [22] = second compound 0.1 µM, first compound 0.1 µM
# [23] = second compound 0.1 µM, first compound 0.316 µM
# [24] = second compound 0.1 µM, first compound 1 µM
# [25] = second compound 0.316 µM, first compound 0.00316 µM
# [26] = second compound 0.316 µM, first compound 0.01 µM
# [27] = second compound 0.316 µM, first compound 0.0316 µM
# [28] = second compound 0.316 µM, first compound 0.1 µM
# [29] = second compound 0.316 µM, first compound 0.316 µM
# [30] = second compound 0.316 µM, first compound 1 µM
# [31] = second compound 1 µM, first compound 0.00316 µM
# [32] = second compound 1 µM, first compound 0.01 µM
# [33] = second compound 1 µM, first compound 0.0316 µM
# [34] = second compound 1 µM, first compound 0.1 µM
# [35] = second compound 1 µM, first compound 0.316 µM
# [36] = second compound 1 µM, first compound 1 µM
compound,measurement,setting,value
CCN1CCN(Cc2ccc(Nc3ncc(F)c(-c4cc(F)c5nc(C)n(C(C)C)c5c4)n3)nc2)CC1 + CNC(C)C(=O)NC1CN(S(=O)(=O)c2cccc(S(=O)(=O)N3CCC4CCC(C(=O)NC(c5ccccc5)c5ccccc5)N4C(=O)C(NC(=O)C(C)NC)C3)c2)CCC2CCC(C(=O)NC(c3ccccc3)c3ccccc3)N2C1=O,IC50,second compound 0.00316 µM,> 1000 nM
same,IC50,second compound 0.01 µM,> 1000 nM
same,IC50,second compound 0.0316 µM,> 1000 nM
same,IC50,second compound 0.1 µM,> 1000 nM
same,IC50,second compound 0.316 µM,> 1000 nM
same,IC50,second compound 1 µM,> 1000 nM
same,"viability, T/C",[1],104%
same,"viability, T/C",[2],89.2%
same,"viability, T/C",[3],103%
same,"viability, T/C",[4],93.9%
same,"viability, T/C",[5],125%
same,"viability, T/C",[6],128%
same,"viability, T/C",[7],105%
same,"viability, T/C",[8],104%
same,"viability, T/C",[9],102%
same,"viability, T/C",[10],99.8%
same,"viability, T/C",[11],126%
same,"viability, T/C",[12],132%
same,"viability, T/C",[13],105%
same,"viability, T/C",[14],93.1%
same,"viability, T/C",[15],102%
same,"viability, T/C",[16],108%
same,"viability, T/C",[17],129%
same,"viability, T/C",[18],136%
same,"viability, T/C",[19],100%
same,"viability, T/C",[20],102%
same,"viability, T/C",[21],104%
same,"viability, T/C",[22],109%
same,"viability, T/C",[23],118%
same,"viability, T/C",[24],131%
same,"viability, T/C",[25],110%
same,"viability, T/C",[26],93.1%
same,"viability, T/C",[27],101%
same,"viability, T/C",[28],104%
same,"viability, T/C",[29],126%
same,"viability, T/C",[30],140%
same,"viability, T/C",[31],102%
same,"viability, T/C",[32],105%
same,"viability, T/C",[33],109%
same,"viability, T/C",[34],107%
same,"viability, T/C",[35],129%
same,"viability, T/C",[36],122%
NC(=O)C(=Cn1cnc(-c2cc(C(F)(F)F)cc(C(F)(F)F)c2)n1)c1cncnc1 + CNC(C)C(=O)NC1CN(S(=O)(=O)c2cccc(S(=O)(=O)N3CCC4CCC(C(=O)NC(c5ccccc5)c5ccccc5)N4C(=O)C(NC(=O)C(C)NC)C3)c2)CCC2CCC(C(=O)NC(c3ccccc3)c3ccccc3)N2C1=O,IC50,second compound 0.00316 µM,> 300 nM
same,IC50,second compound 0.01 µM,> 300 nM
same,IC50,second compound 0.0316 µM,> 300 nM
same,IC50,second compound 0.1 µM,> 300 nM
same,IC50,second compound 0.316 µM,> 300 nM
same,IC50,second compound 1 µM,> 300 nM
same,"viability, T/C","second compound 0.00316 µM, first compound 0.000949 µM",110%
same,"viability, T/C","second compound 0.00316 µM, first compound 0.003 µM",92.8%
same,"viability, T/C","second compound 0.00316 µM, first compound 0.00949 µM",91.9%
same,"viability, T/C","second compound 0.00316 µM, first compound 0.03 µM",83.8%
same,"viability, T/C","second compound 0.00316 µM, first compound 0.0949 µM",100%
same,"viability, T/C","second compound 0.00316 µM, first compound 0.3 µM",105%
same,"viability, T/C","second compound 0.01 µM, first compound 0.000949 µM",93.4%
same,"viability, T/C","second compound 0.01 µM, first compound 0.003 µM",90.6%
same,"viability, T/C","second compound 0.01 µM, first compound 0.00949 µM",96.6%
same,"viability, T/C","second compound 0.01 µM, first compound 0.03 µM",92.4%
same,"viability, T/C","second compound 0.01 µM, first compound 0.0949 µM",108%
same,"viability, T/C","second compound 0.01 µM, first compound 0.3 µM",98.2%
same,"viability, T/C","second compound 0.0316 µM, first compound 0.000949 µM",91.4%
same,"viability, T/C","second compound 0.0316 µM, first compound 0.003 µM",102%
same,"viability, T/C","second compound 0.0316 µM, first compound 0.00949 µM",92.4%
same,"viability, T/C","second compound 0.0316 µM, first compound 0.03 µM",92.5%
same,"viability, T/C","second compound 0.0316 µM, first compound 0.0949 µM",104%
same,"viability, T/C","second compound 0.0316 µM, first compound 0.3 µM",94%
same,"viability, T/C","second compound 0.1 µM, first compound 0.000949 µM",86.2%
same,"viability, T/C","second compound 0.1 µM, first compound 0.003 µM",93.9%
same,"viability, T/C","second compound 0.1 µM, first compound 0.00949 µM",93.5%
same,"viability, T/C","second compound 0.1 µM, first compound 0.03 µM",104%
same,"viability, T/C","second compound 0.1 µM, first compound 0.0949 µM",102%
same,"viability, T/C","second compound 0.1 µM, first compound 0.3 µM",103%
same,"viability, T/C","second compound 0.316 µM, first compound 0.000949 µM",95.6%
same,"viability, T/C","second compound 0.316 µM, first compound 0.003 µM",96.9%
same,"viability, T/C","second compound 0.316 µM, first compound 0.00949 µM",88.6%
same,"viability, T/C","second compound 0.316 µM, first compound 0.03 µM",90.1%
same,"viability, T/C","second compound 0.316 µM, first compound 0.0949 µM",100%
same,"viability, T/C","second compound 0.316 µM, first compound 0.3 µM",91.5%
same,"viability, T/C","second compound 1 µM, first compound 0.000949 µM",96.8%
same,"viability, T/C","second compound 1 µM, first compound 0.003 µM",93.6%
same,"viability, T/C","second compound 1 µM, first compound 0.00949 µM",102%
same,"viability, T/C","second compound 1 µM, first compound 0.03 µM",95.9%
same,"viability, T/C","second compound 1 µM, first compound 0.0949 µM",104%
same,"viability, T/C","second compound 1 µM, first compound 0.3 µM",86.3%
O=C(c1ccc(F)c(F)c1Nc1ccc(I)cc1F)N1CC(O)([C@@H]2CCCCN2)C1 + CNC(C)C(=O)NC1CN(S(=O)(=O)c2cccc(S(=O)(=O)N3CCC4CCC(C(=O)NC(c5ccccc5)c5ccccc5)N4C(=O)C(NC(=O)C(C)NC)C3)c2)CCC2CCC(C(=O)NC(c3ccccc3)c3ccccc3)N2C1=O,IC50,second compound 0.00316 µM,> 1000 nM
same,IC50,second compound 0.01 µM,> 1000 nM
same,IC50,second compound 0.0316 µM,> 1000 nM
same,IC50,second compound 0.1 µM,> 1000 nM
same,IC50,second compound 0.316 µM,> 1000 nM
same,IC50,second compound 1 µM,> 1000 nM
same,"viability, T/C",[1],109%
same,"viability, T/C",[2],87.3%
same,"viability, T/C",[3],114%
same,"viability, T/C",[4],80.5%
same,"viability, T/C",[5],80.5%
same,"viability, T/C",[6],70.6%
same,"viability, T/C",[7],110%
same,"viability, T/C",[8],93.6%
same,"viability, T/C",[9],96.2%
same,"viability, T/C",[10],82.3%
same,"viability, T/C",[11],90.8%
same,"viability, T/C",[12],81.7%
same,"viability, T/C",[13],98.5%
same,"viability, T/C",[14],90.3%
same,"viability, T/C",[15],102%
same,"viability, T/C",[16],87.3%
same,"viability, T/C",[17],85.5%
same,"viability, T/C",[18],83.2%
same,"viability, T/C",[19],106%
same,"viability, T/C",[20],103%
same,"viability, T/C",[21],96.3%
same,"viability, T/C",[22],89.8%
same,"viability, T/C",[23],86.3%
same,"viability, T/C",[24],90.5%
same,"viability, T/C",[25],106%
same,"viability, T/C",[26],90.1%
same,"viability, T/C",[27],89.9%
same,"viability, T/C",[28],96.9%
same,"viability, T/C",[29],97%
same,"viability, T/C",[30],72.3%
same,"viability, T/C",[31],107%
same,"viability, T/C",[32],93.7%
same,"viability, T/C",[33],99.2%
same,"viability, T/C",[34],97.4%
same,"viability, T/C",[35],88%
same,"viability, T/C",[36],69.8%
